Measured values as given in PubChem BioAssay (NCI).
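Grown in 96-well plates, cells were treated for 48 hours with each compound at five concentrations. Insufficient inhibition: endpoint recorded as highest concentration tested. TGI is the concentration that stops growth completely.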

How the values were obtained:
Assay in all cases: DTP human tumour cell line panel, 48 h
HT29 colon = tested on: HT29 colon
SF-295 CNS = tested on: SF-295 CNS
SW-620 colon = tested on: SW-620 colon
SF-539 CNS = tested on: SF-539 CNS
COLO 205 colon = tested on: COLO 205 colon
HCT-116 colon = tested on: HCT-116 colon
HOP-62 NSCLC = tested on: HOP-62 NSCLC
MALME-3M melanoma = tested on: MALME-3M melanoma
NCI/ADR-RES ovarian = tested on: NCI/ADR-RES ovarian
MDA-N = tested on: MDA-N

| SMILES | TGI (HT29 colon) [µM] | TGI (SF-295 CNS) [µM] | TGI (SW-620 colon) [µM] | TGI (SF-539 CNS) [µM] | TGI (COLO 205 colon) [µM] | TGI (HCT-116 colon) [µM] | TGI (HOP-62 NSCLC) [µM] | TGI (MALME-3M melanoma) [µM] | TGI (NCI/ADR-RES ovarian) [µM] | TGI (MDA-N) [µM] |
| --- | --- | --- | --- | --- | --- | --- | --- | --- | --- | --- |
| C=CCc1ccccc1C1CC2(C(=O)OC)OC1C(C(=O)OC)=C2C(=O)OC (stereo not given) | > 10 | > 10 | > 10 | > 10 | > 10 | > 10 | > 10 | > 10 | > 10 | > 10 |
| CC(=O)O[C@H]1CCC2[C@@H]3CCC4NC(=O)C(C#N)C[C@]4(C)C3CC[C@@]21C (stereo not given in full) | > 10 | > 10 | > 10 | > 10 | > 10 | > 10 | > 10 | > 10 | > 10 | > 10 |
| COc1ccc(OC)c(C[P+](c2ccccc2)(c2ccccc2)c2ccccc2)c1 | 11.8 | > 75.9 | > 100 | 39.2 | 2.76 | 14.4 | 22.2 | 23.3 | > 100 | 29.8 |
| COc1cccc(NC(=O)CC(=O)N2N=C(C)C(N=Nc3ccc(C(=O)O)cc3)C2=O)c1 (stereo not given) | > 100 | > 100 | > 100 | > 100 | > 100 | > 100 | > 100 | > 100 | > 100 | > 100 |
| Cc1ccc(NC2=N/C(=C/c3ccco3)C(Cl)=N2)cc1 | > 100 | > 100 | > 100 | > 100 | > 100 | > 100 | > 100 | > 100 | > 100 | > 100 |
| COC(=O)C1CC23C=CCN4CC(C2C)C2(c5ccccc5NC12)C43 (stereo not given) | > 100 | > 100 | > 100 | > 100 | > 100 | > 100 | > 100 | > 100 | > 100 | > 100 |
| Nn1c(Sc2nc3ccccc3c(=O)n2N)nc2ccccc2c1=O | 14.3 | 42.1 | 7.13 | 6.24 | 28.8 | 12.6 | 35.9 | 12.8 | 28.4 | 15.5 |
| Cc1c(C#N)c(=N)oc2ccccc12 | > 100 | > 100 | > 100 | > 100 | > 100 | > 100 | > 100 | > 100 | > 100 | > 100 |
| CC1CN=C(c2ccc(CN3CCC(C4CCN(Cc5ccc(C6=NCC(C)N6)cc5)CC4)CC3)cc2)N1 (stereo not given) | 42.7 | 43.2 | 43.1 | 37.7 | 41.3 | 34 | 30.9 | 63 | > 100 | 47.3 |
| COC(=O)c1cc(C)ccc1C1CN=NC12Cc1c(C)cc(C)cc1C2=O (stereo not given) | 45.8 | 97.4 | > 100 | 32.7 | 31.4 | 28.6 | > 100 | 60.6 | 46.8 | 42 |
| COc1cccc(C23CCCC(C2)N(C)CC3OC(=O)c2ccccc2)c1OC (stereo not given) | 43.3 | 77.7 | > 100 | > 100 | 29 | > 100 | > 100 | 48.1 | 67.1 | 37.7 |
| C[C@]12CC[C@H]3[C@@H](CCC4=C(Br)C(=O)C=C[C@@]43O)[C@@H]1CCC2=O | > 100 | > 100 | > 100 | > 100 | > 100 | 80.1 | > 100 | > 100 | > 100 | > 100 |
| C/C(=N/NC(=S)N1CCN(C(=S)N/N=C(/C)c2ccccn2)CC1)c1ccccn1 | > 100 | > 100 | > 100 | > 100 | > 100 | > 100 | > 67.9 | > 100 | > 45.8 | > 100 |
| CC1=NN2C(=N)/C(=C/c3ccccc3)C(=O)N=C2S1 | > 100 | > 100 | > 100 | > 100 | > 100 | > 100 | > 100 | > 100 | > 51 | > 100 |
| COc1cc2c(c(OC)c1)C(=O)O[C@H](C)CCCC/C=C/C2 | > 71.8 | > 32.2 | 22.9 | 25.9 | 31.8 | 38.2 | 24.7 | 31.3 | > 77.2 | 26.4 |
| COc1cc2c(cc1O)CCN(C)[C@H]2Cc1ccc(Oc2c(O)c(OC)cc3c2C[C@H]2c4c(c(OC)c(OC)c(OC)c4-3)CCN2C)cc1 | 7.35 | 11.3 | 10 | 11.5 | 12.7 | 7.98 | 11.8 | 13.6 | 14.1 | 9.95 |
